The values below come from ChEMBL document CHEMBL1131271, “Potent inhibitors of the MAP kinase p38” (Bioorg Med Chem Lett, 1998).

The target of the assay is MAP kinase p38 (Homo sapiens, UniProt O15264+Q15759+Q16539+P53778). Description: Inhibition of TNF-alpha production by lipopolysaccharide-stimulated human peripheral blood mononuclear cells. It is filed as functional.
In the case of `CCCCOc1cc(N)[nH]c2nc(-c3ccc(F)cc3)c(-c3ccncc3)c1-2`, the IC50 was found to be 4 nM.

The compound `Nc1cc(OCc2ccccc2)c2c(-c3ccncc3)c(-c3ccc(F)cc3)[nH]c2n1` yielded an IC50 of 0.91 nM.

On to `Nc1cc(OCCCc2ccccc2)c2c(-c3ccncc3)c(-c3ccc(F)cc3)[nH]c2n1`, for which the half-maximal inhibitory concentration (IC50) worked out at 9 nM.

`COc1cccc(COc2cc(N)[nH]c3nc(-c4ccc(F)cc4)c(-c4ccncc4)c2-3)c1` had an IC50 of 1.5 nM.

In turn, `Nc1ccc2c(-c3ccncc3)c(-c3ccc(F)cc3)[nH]c2n1` showed an IC50 of 37 nM.
